The text below walks through data of ChEMBL document CHEMBL1145662, “Catharanthus alkaloids, XXXVIII. Confirming structural evidence and antineoplastic activity of the bisindole alkaloids leurosine-N'b-oxide (pleurosine), roseadine and vindolicine from Catharanthus roseus” (J Nat Prod, 1983).

The structures appear in SMILES notation.

For orientation: T/C means the ratio of treated to control.

Data set [1] has as its system P388. Put plainly: Antitumor activity against mouse P388 cells xenografted in CD2F1 mouse at 12.5 mg/kg on 3rd, 6th and 9th day relative to control. Type of data set: functional.
Data set [2] relates to P388. Put plainly: Antitumor activity against mouse P388 cells xenografted in CD2F1 mouse at 25 mg/kg for 1 to 9 days relative to control. Type of data set: functional.
The test system of data set [3] is B16. The data set is described as follows: Antitumor activity against mouse B16 cells xenografted in B6C3F1 mouse at 5 mg/kg for 1 to 9 days relative to control. Type of data set: functional.
The subject of data set [4] is P388. Put plainly: Antitumor activity against mouse P388 cells xenografted in CD2F1 mouse at 6.25 mg/kg on 3rd, 6th and 9th day relative to control. Type of data set: functional.
The subject of data set [5] is Mus musculus. The data set is described as follows: Toxicity in mouse P388 cells xenografted in CD2F1 mouse at 20 mg/kg. Type of data set: organism-based. More on the design: dose 20 mg/kg. To be noted: in vivo.
The test system of data set [6] is P388. The data set is described as follows: Antitumor activity against mouse P388 cells xenografted in CD2F1 mouse at 6.25 mg/kg for 1 to 9 days relative to control. Type of data set: functional.
Data set [7] concerns P388. Put plainly: Antitumor activity against mouse P388 cells xenografted in CD2F1 mouse at 16 mg/kg after 1 day relative to control. The data set is classed as functional.
Data set [8] deals with MC-38. Put plainly: Antitumor activity against mouse Colon 38 cells xenografted in Swiss mouse at 10 mg/kg for 1 to 2 days relative to control. Type of data set: functional.
Data set [9] has as its system P388. Put plainly: Antitumor activity against mouse P388 cells xenografted in CD2F1 mouse at 32 mg/kg after 1 day relative to control. The data set is classed as functional.
Data set [10] relates to P388. Put plainly: Antitumor activity against mouse P388 cells xenografted in CD2F1 mouse at 8 mg/kg after 1 day relative to control. Type of data set: functional.
For data set [11], the system named is MC-38. Put plainly: Antitumor activity against mouse Colon 38 cells xenografted in Swiss mouse at 5 mg/kg for 1 to 2 days relative to control. Type of data set: functional.
Data set [12] deals with P388. The data set is described as follows: Antitumor activity against mouse P388 cells xenografted in CD2F1 mouse at 12.5 mg/kg for 1 to 9 days relative to control. The data set is classed as functional.
Data set [13] concerns CX-1. Put plainly: Antitumor activity against human CX-1 cells xenografted in Swiss nu/nu athymic mouse at 20 mg/kg on 4th,8th,12th and 16th day relative to control. The data set is classed as functional.
Data set [14] concerns B16. The data set is described as follows: Antitumor activity against mouse B16 cells xenografted in B6C3F1 mouse at 10 mg/kg for 1 to 9 days relative to control. The data set is classed as functional.
The test system of data set [15] is B16. Put plainly: Antitumor activity against mouse B16 cells xenografted in B6C3F1 mouse at 2.5 mg/kg for 1 to 9 days relative to control. Type of data set: functional.
For data set [16], the system named is CX-1. Put plainly: Antitumor activity against human CX-1 cells xenografted in Swiss nu/nu athymic mouse at 80 mg/kg on 4th,8th,12th and 16th day relative to control. The data set is classed as functional. Background: Xenograft models place foreign cells or tissue in a host animal.
The test system of data set [17] is P388. Put plainly: Antitumor activity against mouse P388 cells xenografted in CD2F1 mouse at 4 mg/kg after 1 day relative to control. Type of data set: functional.
The test system of data set [18] is P388. Put plainly: Antitumor activity against mouse P388 cells xenografted in CD2F1 mouse at 25 mg/kg on 3rd, 6th and 9th day relative to control. The data set is classed as functional.
For data set [19], the system named is CX-1. The data set is described as follows: Antitumor activity against human CX-1 cells xenografted in Swiss nu/nu athymic mouse at 40 mg/kg on 4th,8th,12th and 16th day relative to control. The data set is classed as functional.
Data set [20] has as its system L1210. The data set is described as follows: Antitumor activity against mouse L1210 cells xenografted in CD2F1 mouse at 10 mg/kg for 1 to 9 days relative to control. Type of data set: functional.
Data set [21] concerns L1210. The data set is described as follows: Antitumor activity against mouse L1210 cells xenografted in CD2F1 mouse at 5 mg/kg for 1 to 9 days relative to control. Type of data set: functional.
Data set [22] deals with CX-1. Put plainly: Antitumor activity against human CX-1 cells xenografted in Swiss nu/nu athymic mouse at 160 mg/kg on 4th,8th,12th and 16th day relative to control. The data set is classed as functional.
In data set [23] the test system is MC-38. The data set is described as follows: Antitumor activity against mouse Colon 38 cells xenografted in Swiss mouse at 20 mg/kg for 1 to 2 days relative to control. The data set is classed as functional.
Data set [24] concerns L1210. Put plainly: Antitumor activity against mouse L1210 cells xenografted in CD2F1 mouse at 20 mg/kg for 1 to 9 days relative to control. The data set is classed as functional.
Data set [25] deals with P388. Put plainly: Antitumor activity against mouse P388 cells xenografted in CD2F1 mouse at 1 mg/kg relative to control. Type of data set: functional.
Data set [26] concerns B16. Put plainly: Antitumor activity against mouse B16 cells xenografted in B6C3F1 mouse at 0.5 mg/kg relative to control. Type of data set: functional.
Data set [27] relates to P388. The data set is described as follows: Antitumor activity against mouse P388 cells xenografted in CD2F1 mouse at 2 mg/kg relative to control. Type of data set: functional.

Consider `CC[C@@]12C[N+]3([O-])CCc4c([nH]c5ccccc45)[C@@](C(=O)OC)(c4cc5c(cc4OC)N(C)[C@H]4[C@@](O)(C(=O)OC)[C@H](OC(C)=O)[C@]6(CC)C=CCN7CC[C@]54[C@@H]76)C[C@@H](C[C@@H]1O2)C3`, for which the T/C in data set [1] was 177%; in data set [2], 181%; in data set [3], 261%; in data set [4], 168%; in data set [6], 154%; in data set [7], 193%. Further, the T/C is listed as 108% in [8]; 140% in data set [9]; 161% in data set [10]; 84% in [11]; 163% in [12]; 81% in [13]. For the same compound, the T/C in [14] is 309%; in data set [15] it was 189%; in [16], 85%; in data set [17] it was 142%; in data set [18], 181%; in [19], 60%. For the same compound, the T/C in [20] amounted to 133%; in [21] it was 101%; in data set [22], 71%; in data set [23], 82%; in [24] it was 112%. Moreover, the Activity result in data set [5] is reported as “Toxic”.
For `CC[C@@H]1C[C@H]2CN(CCc3c([nH]c4ccccc34)[C@@](C(=O)OC)(c3cc4c(cc3OC)N(C)[C@H]3[C@@](O)(C(=O)OC)[C@H](OC(C)=O)[C@]5(CC)C=CCN6CC[C@]43[C@@H]65)C2)C1` [ROSEAMINE], the T/C in [25] is given as 161%.
Compound `CC[C@]1(O)C[C@@H]2CN(CCc3c([nH]c4ccccc34)[C@@](C(=O)OC)(c3cc4c(cc3OC)N(C)[C@H]3[C@@](O)(C(=O)OC)[C@H](OC(C)=O)[C@]5(CC)C=CCN6CC[C@]43[C@@H]65)C2)C1` [VINBLASTINE] yielded a T/C in [26] of 309%.
Take `CC[C@]1(O)CN2CCc3c([nH]c4ccccc34)[C@@H]1[C@@H](/C=C(\C(=O)OC)c1cc3c(cc1OC)N(C)C1[C@]34CCN3CC=C[C@](CC)(C34)[C@@H](OC(C)=O)[C@]1(O)C(=O)OC)C2` (some centres not stated) [ROSEADINE]: in data set [27], the T/C was 176%.
